In US20250163072A1, “MACROCYCLIC COMPOUNDS FOR THE TREATMENT OF CANCER” (Hoffmann-La Roche Inc., priority 2021, published 2025):

Columns and labels:
[1] = GSH reaction rates (inherent GSH reactivity); format: in vitro ADME; conditions: 1 μM compound, 5 mM GSH, 37° C.
How it was run: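 Compounds at 1 μM were incubated at 37° C with or without 5 mM GSH in 100 mM potassium phosphate pH 7.4 for 0-6 h. Samples were quenched with acetonitrile/N-ethylmaleimide and the remaining compound quantified by LC-MS/MS to derive T1/2.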

AGS cells = experiment: Cell viability assay, AGS; format: cell-based, human; conditions: Homo sapiens, 72 hours, Cell Counting Kit-8, read-out: G12D IC50
How it was run: (§1)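 Cells were plated at 5,000 (NCI-H358) or 2,000 (AGS, SW620) per well and incubated overnight. They were then treated with compound in 0.5% DMSO for 72 h. Viability was read with CCK-8 as OD450 minus OD650 after 2 h, and IC50 came from a 4-parameter sigmoidal fit.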

KRAS G12V in SW620 = experiment: pERK inhibition assay, SW620; format: cell-based, human; conditions: Homo sapiens, SW-620, SW620 cells, 4 hours incubation
How it was run: (§2)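 NCI-H358, AGS and SW620 cells in RPMI-1640/10% FBS were plated overnight, then exposed to compound (0.5% DMSO final) for 4 h. After fixation and permeabilization, phospho-ERK was quantified by in-cell ELISA (HRP secondary, TMB, OD450); IC50 from a 4-parameter sigmoidal fit.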

NCI-H358 cells = experiment: Cell viability assay, NCI-H358; format: cell-based, human; conditions: Homo sapiens, NCI-H358, 72 hours, Cell Counting Kit-8, read-out: G12C IC50
How it was run: as §1

[2] = test system: KRAS G12C in NCI-H358 cells; experiment: pERK inhibition assay, NCI-H358; format: cell-based, human; conditions: Homo sapiens, 4 hours incubation
How it was run: as §2

SW620 cells = experiment: Cell viability assay, SW620; format: cell-based, human; conditions: Homo sapiens, SW-620, SW620, 72 hours, Cell Counting Kit-8, read-out: G12V IC50
How it was run: as §1

[3] = molecular target: KRAS G12V binding to BRAF (Homo sapiens (Human), UniProt P01116+P62937, G12V); experiment: KRAS-BRAF with CYPA (50 nM) interaction assay (TR-FRET), G12V; conditions: GMPPNP loaded 6His-KRAS, GST-BRAF RBD
How it was run: (§3)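 Buffer 25 mM HEPES pH 7.4, 100 mM NaCl, 5 mM MgCl2, 10 μM GMPPNP, 0.1% BSA; final 50 nM tagless CYPA, 6.25 nM GMPPNP-loaded 6His-KRAS mutant, 1 nM GST-BRAF RBD. Compounds 16-point 3-fold series from 10 μM, 3 h; anti-6His-XL665/anti-GST-Tb added, 1.5 h; 665/615 nm ratio decrease versus DMSO.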

KRAS G12C-BRAF complex = KRAS G12C-BRAF complex (Homo sapiens (Human), UniProt P01116+P62937, G12C); experiment: KRAS-BRAF with CYPA (50 nM) interaction assay (TR-FRET), G12C; format: binding; conditions: GMPPNP loaded 6His-KRAS, GST-BRAF RBD
How it was run: as §3

Chain of KRAS G12C-BRAF complex (P01116-2 other isoform, or with tags, fused parts or gaps G12C): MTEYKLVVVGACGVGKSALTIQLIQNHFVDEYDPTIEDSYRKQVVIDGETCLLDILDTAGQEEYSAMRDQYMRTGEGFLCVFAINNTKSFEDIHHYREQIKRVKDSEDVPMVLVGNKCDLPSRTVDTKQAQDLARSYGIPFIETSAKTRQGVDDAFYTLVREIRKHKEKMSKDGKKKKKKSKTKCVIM
Chain of KRAS G12C-BRAF complex (P62937 whole entry): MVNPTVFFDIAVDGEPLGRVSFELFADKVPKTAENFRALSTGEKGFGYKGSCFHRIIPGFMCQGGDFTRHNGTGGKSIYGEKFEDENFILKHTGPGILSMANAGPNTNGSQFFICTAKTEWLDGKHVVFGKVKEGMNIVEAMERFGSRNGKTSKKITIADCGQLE
Chain of KRAS G12V binding to BRAF (P01116-2 other isoform, or with tags, fused parts or gaps G12V): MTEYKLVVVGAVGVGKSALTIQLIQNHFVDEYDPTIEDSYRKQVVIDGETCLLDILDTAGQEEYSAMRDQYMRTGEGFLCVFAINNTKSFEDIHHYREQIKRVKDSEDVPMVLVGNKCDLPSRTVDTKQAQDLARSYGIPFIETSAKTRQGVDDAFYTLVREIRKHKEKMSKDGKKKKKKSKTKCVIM
Chain of KRAS G12V binding to BRAF (P62937 whole entry): as the sequence (P62937 whole entry) above

CO[C@@H](C)c1ncc(N2CCOCC2)cc1-c1c2c3cc(ccc3n1CC(F)(F)F)-c1csc(n1)C[C@H](NC(=O)[C@H](C(C)C)N(C)C(=O)[C@H]1CCN(C(=O)[C@H](F)Cl)C1)C(=O)N1CCC[C@H](N1)C(=O)OCC(C)(C)C2 (atropisomer, axis not shown; (M)) [Example 25, (3S)-1-[(2R)-2-chloro-2-fluoro-acetyl]-N-[(1S)-1-[[(7S,13S)-(20M)-20-[2-[(1S)-1-methoxyethyl]-5-morpholino-3-pyridyl]-17,17-dimethyl-8,14-dioxo-21-(2,2,2-trifluoroethyl)-15-oxa-4-thia-9,21,27,28-tetrazapentacyclo[17.5.2.12,5.19,13.022,26]octacosa-1(25),2,5(28),19,22(26),23-hexaen-7-yl]carbamoyl]-2-methyl-propyl]-N-methyl-pyrrolidine-3-carboxamide]
Remaining at 6 hr in GSH (%) ([1]; pH 7.4, 6 hr): 100%
T1/2(hour) in GSH ([1]; potassium phosphate buffer pH 7.4): stable (If % depletion after 6 hour incubation is less than 20%, compounds were reported as stable)
IC50 (AGS cells): 94 nM
IC50 (KRAS G12V in SW620): 3 nM
IC50 (NCI-H358 cells): < 0.6 nM
IC50 [2]: 1 nM
IC50 (SW620 cells): 6 nM
IC50 [3]: > 10000 nM
IC50 (KRAS G12C-BRAF complex): 32 nM
